Active and inactive are the calls of the source. The calls are words filed in the database; no cut-off is given here.
Experiments:
[1] = Antitumor activity against Mus musculus (mouse) EAC xenografted in Mus musculus Swiss albino (mouse) assessed as inhibition of tumor formation at 50 mg/kg, ip qd for 7 days relative to control; format: functional; details: Ehrlich, 168 h, route intraperitoneal
[2] = system: Mus musculus; experiment: Antitumor activity against Mus musculus (mouse) EAC xenografted in Mus musculus Swiss albino (mouse) assessed as restoration of WBC count at 50 mg/kg, ip qd for 7 days; format: functional, organism-based; design: dose 50 mg/kg
[3] = system: Mus musculus; experiment: Antitumor activity against Mus musculus (mouse) EAC xenografted in Mus musculus Swiss albino (mouse) assessed as restoration of hemoglobin level at 50 mg/kg, ip qd for 7 days; format: functional, organism-based; design: dose 50 mg/kg
[4] = Antitumor activity against Mus musculus (mouse) EAC xenografted in Mus musculus Swiss albino (mouse) assessed as viable cells at 50 mg/kg, ip qd for 7 days relative to control; format: functional, Ehrlich; details: route intraperitoneal
[5] = system: Mus musculus; experiment: Antitumor activity against Mus musculus (mouse) EAC xenografted in Mus musculus Swiss albino (mouse) assessed as increase in median life span at 50 mg/kg, ip qd for 7 days relative to control; format: functional; details: 168 h, route intraperitoneal, read-out: Survival
[6] = system: Mus musculus; experiment: Antitumor activity against Mus musculus (mouse) EAC xenografted in Mus musculus Swiss albino (mouse) assessed as increase in average life span at 50 mg/kg, ip qd for 7 days relative to control; format: functional; details: 168 h, route intraperitoneal, read-out: Survival
[7] = system: Mus musculus; experiment: Antitumor activity against Mus musculus (mouse) EAC xenografted in Mus musculus Swiss albino (mouse) assessed as restoration of RBC count at 50 mg/kg, ip qd for 7 days; format: functional, organism-based; design: dose 50 mg/kg
[8] = Antitumor activity against Mus musculus (mouse) EAC xenografted in Mus musculus Swiss albino (mouse) assessed as non-viable cells at 50 mg/kg, ip qd for 7 days relative to control; format: functional, Ehrlich; details: route intraperitoneal
[9] = system: Mus musculus; experiment: Antitumor activity against Mus musculus (mouse) EAC xenografted in Mus musculus Swiss albino (mouse) assessed as increase in average life span at 20 mg/kg, ip qd for 7 days relative to control; format: functional; details: 168 h, route intraperitoneal
[10] = Antitumor activity against Mus musculus (mouse) EAC xenografted in Mus musculus Swiss albino (mouse) assessed as viable cells at 20 mg/kg, ip qd for 7 days relative to control; format: functional, Ehrlich; details: route intraperitoneal
[11] = Antitumor activity against Mus musculus (mouse) EAC xenografted in Mus musculus Swiss albino (mouse) assessed as non-viable cells at 20 mg/kg, ip qd for 7 days relative to control; format: functional, Ehrlich; details: route intraperitoneal
[12] = system: Mus musculus; experiment: Antitumor activity against Mus musculus (mouse) EAC xenografted in Mus musculus Swiss albino (mouse) assessed as increase in median life span at 20 mg/kg, ip qd for 7 days relative to control; format: functional; details: 168 h, route intraperitoneal

SMILES | inhibition in vivo at 50 mg/kg [1] [%] | Activity [2] | Activity [3] | Activity [4] [%] | Increase in median life span at 50 mg/kg [5] [%] | percent increase in average life span at 50 mg/kg [6] [%] | Activity [7] | Activity [8] [%] | survival at 20 mg/kg [9] [%] | Activity [10] [%] | Activity [11] [%] | survival at 20 mg/kg [12] [%]
S=c1oc(-c2ccc(Cl)cc2Cl)nn1CNc1ccccn1 | 52.2 | Active | Active | 27.33 | 47.7 | 53.6 | Active | 72.67 |  |  |  | 
O=[N+]([O-])c1ccc(-c2nn(CNc3ccccn3)c(=S)o2)cc1 | 60.8 | Active | Active | 36.83 | 36.9 | 38.5 | Active | 63.17 |  |  |  | 
Oc1ccc(-c2nn(CNc3ccccn3)c(=S)o2)cc1 | 73.9 | Active | Active | 22.5 | 76.9 | 80.7 | Active | 77.5 |  |  |  | 
Cc1ccc(-c2nn(CNc3ccccn3)c(=S)o2)cc1 | 56.5 | Active | Active | 24.83 | 73.8 | 74 | Active | 75.17 |  |  |  | 
O=[N+]([O-])c1ccc(-c2nn(CNc3ccccc3)c(=S)o2)cc1 | 56.5 | Active | Active | 33.5 | 44.6 | 46.4 | Active | 66.5 |  |  |  | 
O=c1[nH]cc(F)c(=O)[nH]1 [FLUOROURACIL] |  |  |  |  |  |  |  |  | 92.7 | 14.83 | 85.17 | 90.8

Source: ChEMBL document CHEMBL3046067, “Synthesis of some novel 3,5-disubstituted 1,3,4-oxadiazole derivatives and anticancer activity on EAC animal model” (2011)
